Measurements reported in ChEMBL document CHEMBL5715945 (Cancer Biol Ther, 2010).
Active and inactive are the calls of the source. The rule behind the calls is not given here.

Tests used:
4T1 [1] = test: Inhibition of Src phosphorylation at Tyr416 residue in mouse 4T1 cells harbouring mCherry red fluorescent protein incubated for 1 hr by immunoblotting analysis; format: cell-based; details: dose 0.1-1 µM
4T1 [2] = test: Inhibition of cell adhesion to fibronectin in mouse 4T1 cells at 0.4 uM incubated for 4 hrs by […]; format: functional, cell-based
[3] = target: Focal adhesion kinase 1 (Mus musculus) (UniProt P34152); test: Inhibition of FAK phosphorylation at Tyr397 residue in mouse 4T1 cells harbouring mCherry red fluorescent protein at 0.1 to 1 uM incubated for 1 hr by immunoblotting analysis; format: cell-based; details: dose 0.1-1 µM
Focal adhesion kinase 1 (Mus musculus), sequence (P34152 whole entry): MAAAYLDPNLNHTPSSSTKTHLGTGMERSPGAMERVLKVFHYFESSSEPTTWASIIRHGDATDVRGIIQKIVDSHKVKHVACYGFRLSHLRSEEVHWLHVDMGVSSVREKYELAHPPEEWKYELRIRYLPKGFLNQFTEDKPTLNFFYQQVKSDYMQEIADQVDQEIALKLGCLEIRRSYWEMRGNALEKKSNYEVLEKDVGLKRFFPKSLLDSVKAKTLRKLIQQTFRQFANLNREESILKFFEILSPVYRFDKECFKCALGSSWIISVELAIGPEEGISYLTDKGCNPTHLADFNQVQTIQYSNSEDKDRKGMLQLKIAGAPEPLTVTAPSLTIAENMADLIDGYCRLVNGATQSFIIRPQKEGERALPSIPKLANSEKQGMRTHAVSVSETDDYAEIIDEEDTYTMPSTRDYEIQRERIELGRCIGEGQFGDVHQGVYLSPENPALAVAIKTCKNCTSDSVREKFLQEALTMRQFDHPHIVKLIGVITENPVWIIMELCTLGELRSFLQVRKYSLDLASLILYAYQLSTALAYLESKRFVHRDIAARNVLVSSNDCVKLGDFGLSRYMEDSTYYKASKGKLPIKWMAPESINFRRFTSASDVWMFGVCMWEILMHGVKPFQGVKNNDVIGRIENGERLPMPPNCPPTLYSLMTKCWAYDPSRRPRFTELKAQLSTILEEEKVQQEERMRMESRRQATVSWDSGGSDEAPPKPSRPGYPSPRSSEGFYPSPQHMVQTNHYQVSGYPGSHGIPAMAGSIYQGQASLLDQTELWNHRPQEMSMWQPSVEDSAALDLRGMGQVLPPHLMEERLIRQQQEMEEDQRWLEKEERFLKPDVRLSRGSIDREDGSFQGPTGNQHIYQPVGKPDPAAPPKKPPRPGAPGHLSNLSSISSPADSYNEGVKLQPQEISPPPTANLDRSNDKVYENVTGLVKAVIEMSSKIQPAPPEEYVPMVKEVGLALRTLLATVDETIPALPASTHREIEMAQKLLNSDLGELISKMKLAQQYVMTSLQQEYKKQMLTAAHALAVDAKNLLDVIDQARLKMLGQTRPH

inhibition [3]: inactive
Structure (SMILES): Cc1nc(Nc2ncc(C(=O)Nc3c(C)cccc3Cl)s2)cc(N2CCN(CCO)CC2)n1
inhibition (4T1 [1]): Dose-Dependent Effect
inhibition (4T1 [2]): inactive
